# Experimental data: EP2229935A1, “Peptide derivatives or pharmaceutically acceptable salts thereof, method for producing the same, use of said derivatives and pharmaceutical composition” (Nebolsin, Vladimir Evgenievich, priority 1997, dated 1999)
# Counter-ions that a name gives are not always drawn. Like-named read-outs stand apart in the source and are kept apart here. Marks after values point to notes of the source that are not given here.
# Legend:
# [1] = system: Lewis pulmonary carcinoma (LLC); test: Lewis pulmonary carcinoma spontaneous metastasizing, oral administration; format: in vivo; details: BDF1 female mice with LLC, oral 24 days; for Mean number of metastases: day 25
# Procedure: Each group included 15 animals. 0.3 ml of LLC tumor tissue suspension was intramuscularly injected to mice. Henks solution was used as a solvent. […] Moscow (1992) 13 pp.]. […]
# hydroxyl radical = test: Hydroxyl radical formation in the Fenton reagent (chemiluminescence); format: biochemical
# [2] = system: hepatic P-450 cytochrome system; test: Hexenal sleep duration in mice; format: in vivo; details: CBF1 mice, oral 3 days, control 25.91 ± 1.57
# Procedure: Change in Hexenal sleep (HS) duration is the in vivo measurable index of hepatic P-450 cytochrome system condition.
# Studies were carried out on male mice of the lines BALB/c*h75, C57B1/6, CBA, DBA/2, first generation CBF1 and BDF1 hybrides, with initial mass 18-20 g, each group including 10 mice; and on mongrel male guinea pigs with initial mass 250-300 g, each group including 24 animals. All the test compounds (from II to LII) were administered orally in drinking water and for three days at doses 50 and 500 µg/kg. Hexenal hydrochloride at a dose […] of animal mass was administered 24 hours after the last drug administration, except for line BALB/c*h75 mice, which were administered Hexenal at a dose 60 µg/kg at the same terms, and guinea pigs for which Hexenal dose was 30 µg/kg. HS duration was determined in minutes.
# mongrel male rats [3] = test: Hypolipidemic activity: experimental hyperlipidemia (atherogenic load); details: atherogenic diet, oral last four days; for HDL-CS / LDL-CS+ VLDL-CS / Total CS / Triglycerides: blood; for Kcs: cholesterol index;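 as to all read-outs here: serum drawn 18 h after the final dose from rats deprived of food over that interval, groups of 10 animals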
# Procedure: (§2) Hypolipidemic activity of the compounds of general formula (I) was studied on the model of experimental hyperlipidemia [Arichi H., Kumura H.O. Effects of stibens compounds of roots of polygonum cuspidatium on the lipid metabolism. […] Each group of animals included 10 rats. […] Blood samples were taken for analysis 18 hours after the last administration of the test substances during which period food was taken away from rats.
# (§3) The following parameters were determined: total cholesterol (total CS); high density lipoprotein cholesterol (HDL-CS); low density lipoprotein cholesterol and very low density lipoprotein cholesterol (LDL-CS and VLDL-CS); triglycerides (TG). Blood serum CS level was determined according to the Ilk method [Biochemical examination in the clinic. […] HDL-CS level was measured in supernatant following heparine-manganese precipitation of LDL+VLDL [Titov V.N., Brener E.D., Khaltaiev N.G., Zadoya A.A., Tvorogova M.G. A method and diagnostic significance of cholesterol level study in α-lipoproteins. […] LDL-CS level determination was carried out by calculation according to the formula presented in the work Friedwald W.T. [Friedwald W.T., Levy K.J., Leus R. Fat transport in lipoproteins: an integrated approach to mechanism and disorders.
# (§4) To assess the effect of the test compounds on the ratio of atherogenic and antiatherogenic blood serum lipoproteins, cholesterol index (Kcs) was calculated according to the formula presented in the work [Klimov A.N., Nikulcheva N.G. Lipoproteins, dylipoproteinemias and atherosclerosis.
# (§5) Blood serum TG level was determined using the conventional method [Friedwald W.T., Levy R.I., Fredrickson D.S. Estimation of concentration of low-density lipoprotein cholesterol in plasma, without use of preparative ultracentrifuge.
# [4] = system: Lewis pulmonary carcinoma (LLC); test: Lewis pulmonary carcinoma growth; format: in vivo; details: mice with LLC, day 12; for Growth inhibition percent: compound in drinking water; for Tumor volume (mm^3): compound in drinking water from 24 hours after transplantation
# Procedure: Experiments were carried out on male mice with initial body mass 18-20 g. Each group included 10 animals. […] Administration of compounds II, III, IX, X, XII, XIV, XV, XVI, XVII, XIX, XXII, XLVII in drinking water was commenced 24 hours following transplantation and continued till the end of experiment. Effect of the compounds on Lewis rat pulmonary carcinoma (LLC) was estimated by day 12 of experiment by change in tumor volume expressed in mm^3.
# white mongrel male rats [5] = test: Carrageenan paw edema, cutaneous gel application (series 2); format: in vivo; details: for Volume of paws (conditional units) Right: 0.1 ml of 1% gel on right paw, 4 hours after carrageenan; for Volume of paws (conditional units) left: 1% gel group, left paw; for Volume of paws (conditional units) left / Inflammation inhibition (%) / Volume increment: 4 hours; for Inflammation inhibition (%) / Volume increment: 1% gel
# Procedure: (§1) Experiment was carried out on white mongrel male rats weighing 280-300 g. Carrageenan-induced edema was caused according to the method of Winter et al. [[inter et al. In: De Rosa M., Giroud J.P., Willoughby D.A. Studies of the mediators of the acute inflammatory reponse induced in rats in different sites by carrageenan and turpentine. […] Paw volume measurement was done using a plethysmograph (Ugo Basile) 1, 3 and 4 hours after carrageenan administration. Inhibition of inflammatory reaction expressed in percent, was calculated according to the formula: 100-[(R-L(exper.))/(L):(R-L(control))/(L)x100](%) [formula] where R - the right paw volume, L - the left paw volume.
# Series 2 of experiment. 2% carrageenan solution was injected sublaterally into paws of rats. In 1 minute 0.1 ml of gel comprising the test compounds were applied on the right paw. Gel base consisted of propylene glycol dissolved in the mixture of water and ethanol. Concentration of the compounds in the gel was 1%. Volume of paws was measured 4 hours after carrageenan administration.
# superoxide anion-radical = test: Superoxide anion-radical formation in the xantine-xantine oxidase system (chemiluminescence); format: biochemical
# Procedure: Effect of the compounds of general formula (I) on change in chemiluminescence (CL) determined by hydroxyl radical ( OH) and superoxide anion-radical (O2-), in the model chemical and enzymatic systems.
# 5 to 10 ml of the test compounds dissolved in water were at needed concentration introduced into a cuvette. A total sample volume was 0.5 ml. • B. Superoxide anion-radical in the mixture of xantine and xantine oxidase [Afanas'ev I., Suslova T., Cheremisina Z. et al. Study of antioxidant properties of metal aspartates.
# Incubation medium comprised 5 mM KH2PO4; 0.2 IU/ml xantine oxidase. Xantine at concentration 1 mM was introduced into sample through a dispencer. Luceginine (0.2 mM) was used in this system as luminiscence sensitizer.
# CL signal indication was performed by its integration every 10 seconds for 5 minutes. CL flash recording duration after mixing ingredients, depended on a particular process kinetics. For each system, CL light sum (mV) was determined in the control samples without preparations (I-) and in samples comprising respective concentrations of preparations (I+). To estimate CL inhibition (activation) degree, the I+/I- ratio (in relative units) was found in the studied systems.
# AOF formation and effect of the test compounds on this process were recorded on the Luminometer-1251 instrument (LKB, Sweden).
# Because of such "distension" of the kinetic curve, chemiluminescence light sum was recorded during the first 3-5 minutes which reflected a total amount of light quantums produced in the system till achieving the maximum CL intensity values.
# white mongrel male rats [6] = test: Carrageenan paw edema, oral administration (series I); format: in vivo
# Procedure: as §1
# Series I of experiment. […] The reference drug Naproxene was once administered at a dose 20 µg/kg 1 hour before edema induction. Each group included 10 animals.
# [7] = system: Isolate HIV-1/IV17 of type 1 human immunodeficiency virus; test: Viability of MT-4 cells acutely infected with HIV-1; format: cell-based; details: Human immunodeficiency virus 1, MT4, 168 h, day 7, series 2 (infected cells 24, non-infected 88), read-out: Viability of cells in percent
# Procedure: Study was carried out on the culture of human lymphoblastoid cells MT-4. Isolate HIV-1/IV17 of type 1 human immunodeficiency virus from the collection of the D.I.Ivanovsky Institute for Virology was used in experiment. The test compounds of general formula (I): III, VI, VII were introduced into cellular culture at concentrations 1.0; 0.1 and 0.01 µg/ml. The reference drug Azidothymidine was introduced at a dose 0.05 µM/ml. The compounds were introduced into the culture of MT-4 cells at a dose 1000 TCD50 one hour prior to virus introduction. Viability of MT-4 cells was estimated by day 7 of experiment.
# Viability of cells was the main efficacy parameter of the test compounds.
# [8] = system: Strain Aichi of type A human influenza virus; format: in vivo; details: mice, influenza virus; 500 µg/kg
# mongrel male rats [9] = details: po, 96 h
# Procedure: as §2, §3, §4, §5
# mongrel male mice = test: Delayed hypersensitivity induced by picryl chloride (TCB), local ointment; format: in vivo; details: mice, TCB
# Procedure: Effect study of the compounds on the delayed type hypersensitivity reaction induced in mice by 2.4.6-trichlorobenzol (TCB) was carried out according to the method of Tarayre et al. [Tarayre J.P., Barbara M., Aliaga M., Tisne-Versilles. Comparative actions of immunosuppressants, glucocorticoids and non-steroidal antiinflammatory drugs on various models of delayed hypersensitivity and on a non-immune inflammation in mice. Arzneim.-Forsch. Drug Res. (1990), Vol. 40, pip.1125-1131].
# Studies were conducted on mongrel male mice with initial body mass 30-35 g. Each group included 10 animals. Mice were sensitized with 0.1 ml 3% TCB solution in acetone application on a shaved abdominal area. In 7 days, the anaphylaxis-provoking TCB dose (0.025 ml of 3% solution) was applied on both surfaces of the right ear. In 30 minutes 0.05 ml of the test ointment were rubbed into the same surfaces. 24 hours after edema induction, mice were sacrified, ears were cut off and weighed. Allergic reaction intensity was assessed by change in weight in grams of the right ear (the test one) in relation to the left ear (the control ear).
# Allergic reaction inhibition expressed in percent was calculated according to the formula: 100-[(R-L(exper.))/(L):(R-L(control))/(L)x100](%) [formula] where R - the right ear weight, L - the left ear weight.
# The test compounds were applied on the ear in the form of 1% and 5% ointment the base of which were 10% methylcellulose solution and propylene glycol at 1:1 ratio.
# Groups of animals: • Group 1 - control, ointment base without active substance was applied on the ear of animals. • Group 2 - ointment base comprising 1% compound III was applied on the ear of animals. • Group 3 - ointment base comprising 1% compound XVII was applied on the ear of animals. • Group 4 - ointment base comprising 5% compound XLVIII was applied on the ear of animals.
# [10] = 0.01 mM, control of the series as in the table
# [11] = 0.1 mM, control of the series as in the table
# [12] = 1 mM, control of the series 7839 ± 171, 1120 ± 163, 4974 ± 283 or 1332 ± 172
# [13] = 1 mM, control of the series 5616 ± 173, 5391 ± 195, 7290 ± 128 or 6776 ± 150
# [14] = intragastral four times 50 µg/kg
Structure (SMILES),Chemiluminiscence intensity (mV) + σn-1 (hydroxyl radical; [11]) [mV],relative effect: I+/I- (hydroxyl radical; 1 mM),Chemiluminiscence intensity (mV) + σn-1 (hydroxyl radical; [12]) [mV],HDL-CS (mongrel male rats [3]; 50 µg/kg),Total CS (mongrel male rats [3]; 50 µg/kg),Triglycerides (mongrel male rats [3]; 50 µg/kg),HDL-CS (mongrel male rats [3]; 500 µg/kg),Total CS (mongrel male rats [3]; 500 µg/kg),Triglycerides (mongrel male rats [3]; 500 µg/kg),Kcs (mongrel male rats [3]; 50 µg/kg),Kcs (mongrel male rats [3]; 500 µg/kg),Growth inhibition percent [4] [%],Tumor volume (mm^3) [4],Volume of paws (conditional units) Right (white mongrel male rats [5]) [conditional units],Volume of paws (conditional units) left (white mongrel male rats [5]) [conditional units],Inflammation inhibition (%) (white mongrel male rats [5]),Volume increment (white mongrel male rats [5]),also measured
"COC(=O)[C@H](Cc1c[nH]cn1)NC(=O)CCCC(=O)O [IX, N-GLUTARYL-L-HISTIDINE METHYL ETHER]",664 ± 47,0.20,225 ± 9,"29,7±3,6*^A","78,4±4,4*^A","24,5±20,2","20,1±1,6","72,1±3,9**^A","201.8±8,1***^A","1,64±0,16***^A","2,59±0,17***^A",10,2372 ± 323 mm^3,,,,,"Mean number of metastases ([1]; 500 µg/kg): 38.5 ± 5.7*^3; Metastasizing inhibition percent ([1]; 500 µg/kg): 24.0%; relative effect: I+/I- (hydroxyl radical; 0.01 mM): 0.95; Chemiluminiscence intensity (mV) + σn-1 (hydroxyl radical; [10]): 1069 ± 72 mV; relative effect: I+/I- (hydroxyl radical; 0.1 mM): 0.59; Hexenal sleep duration (minutes) ([2]; 50 µg/kg): 16.71 ± 0.94** minutes; Hexenal sleep duration ([2]; 500 µg/kg): 20.76 ± 1.32 min; LDL-CS+ VLDL-CS (mongrel male rats [3]; 50 µg/kg): 48,7±4,4**^A; LDL-CS+ VLDL-CS (mongrel male rats [3]; 500 µg/kg): 52,0±3,4**^A"
"O=C(O)Cc1ccccc1Nc1c(Cl)cccc1Cl [Voltaren, reference compound]",,,,,,,,,,,,,,1.99 ± 0.24,1.63 ± 0.26,48,0.40 ± 0.03,
"O=C(O)CCC(=O)NCCc1c[nH]cn1 [compound II, N-SUCCINYLHISTAMINE]",693 ± 42,0.16,175 ± 21,,,,,,,,,61,1025 ± 150** mm^3,,,,,"Mean number of metastases ([1]; 50 µg/kg): 44.3 ± 8.0; Mean number of metastases ([1]; 500 µg/kg): 32.9 ± 4.8*^2; Metastasizing inhibition percent ([1]; 50 µg/kg): 5.5%; Metastasizing inhibition percent ([1]; 500 µg/kg): 30.0%; relative effect: 1+/I- (superoxide anion-radical; 0.01 mM): 0.97; Chemiluminiscence intensity (mV) + σn-1 (superoxide anion-radical; [10]): 5229 ± 140 mV; relative effect: 1+/I- (superoxide anion-radical; 0.1 mM): 0.88; Chemiluminiscence intensity (mV) + σn-1 (superoxide anion-radical; [11]): 4753 ± 89 mV; relative effect: 1+/I- (superoxide anion-radical; 1 mM): 0.58; Chemiluminiscence intensity (mV) + σn-1 (superoxide anion-radical; [13]): 3143 ± 156 mV; relative effect: I+/I- (hydroxyl radical; 1 µM): 0.86; Chemiluminiscence intensity (mV) + σn-1 (hydroxyl radical; 1 µM, control of the series as in the table): 961 ± 42 mV; relative effect: I+/I- (hydroxyl radical; 0.01 mM): 0.69; Chemiluminiscence intensity (mV) + σn-1 (hydroxyl radical; [10]): 772 ± 44 mV; relative effect: I+/I- (hydroxyl radical; 0.1 mM): 0.62; Hexenal sleep duration (minutes) ([2]; 500 µg/kg): 21.72 ± 1.24* minutes; Inflammation inhibition (%) (white mongrel male rats [6]; [14]): 12%; Volume increment (white mongrel male rats [6]; [14]): 0.64 ±0.05*^!; Volume of paws (conditional units) left (white mongrel male rats [6]; [14]): 1.28 ± 0.28 conditional units; Volume of paws (conditional units) Right (white mongrel male rats [6]; intragastral four times 50 µg/kg 72, 48, 24 and 1 hour before): 1.92 ± 0.65 conditional units"
"COC(=O)[C@H](Cc1c[nH]cn1)NC(=O)CC[C@H](N)C(=O)O [compound VII, γ -L-GLUTAMYL-HISTIDINE METHYL ETHER DIHYDROCHLORIDE]",1158 ± 102,0.15,165 ± 7,"26,0±1,9","72,3±4,9**^A","250,6±12,0","22,3±2,2","78,1±3,3","251,4±12,71","1,78±0,12***^A","2,5±0,17**^A",,,,,,,"viability at 0.01 µg/mL ([7]; 0.01 µg/ml): 34%; viability at 0.1 µg/mL ([7]; 0.1 µg/ml): 49%; viability at 1 µg/mL ([7]; 1.0 µg/ml): 51%; increase in MLT, survival rate and protection degree [8]: most manifested; relative effect: 1+/I- (superoxide anion-radical; 0.01 mM): 0.91; Chemiluminiscence intensity (mV) + σn-1 (superoxide anion-radical; [10]): 5082 ± 278 mV; relative effect: 1+/I- (superoxide anion-radical; 0.1 mM): 0.72; Chemiluminiscence intensity (mV) + σn-1 (superoxide anion-radical; [11]): 4050 ± 291 mV; relative effect: 1+/I- (superoxide anion-radical; 1 mM): 0.20; Chemiluminiscence intensity (mV) + σn-1 (superoxide anion-radical; [13]): 1114 ± 51 mV; Hexenal sleep duration (minutes) ([2]; 50 µg/kg): 17.62 ± 0.96* minutes; Hexenal sleep duration (minutes) ([2]; 500 µg/kg): 16.99 ± 1.33* minutes; LDL-CS+ VLDL-CS (mongrel male rats [9]; 0.05 mg/kg): 46,3±3,2**^A; LDL-CS+ VLDL-CS (mongrel male rats [9]; 0.5 mg/kg): 55,8±3,9**^A"
NCCC(=O)NCCc1c[nH]c2ccccc12 [compound XIII],,,,"23,9±1,9","76,3±5,5*^A","201,2±8,7***^A","27,8±2,3*^A","69,3±3,7***^A","190,0±11,7***^A","2,19±0,16***^A","1,49±0,1***^A",,,2.29 ± 0.18,1.82 ± 0.34,35,0.47 ± 0.08,"LDL-CS+ VLDL-CS (mongrel male rats [3]; 50 µg/kg): 52,4±3,9**^A; LDL-CS+ VLDL-CS (mongrel male rats [3]; 500 µg/kg): 41,5±2,9***^A"
"O=C(O)CCCC(=O)NCCc1c[nH]c2ccccc12 [compound XVII, N-GLUTARYLTRYPTAMINE]",,,,,,,,,,,,48,1367 ± 233** mm^3,,,,,"Reaction inhibition (%) (mongrel male mice; 1% ointment): 24%; weight increment (mongrel male mice; 1% ointment): 6.1 ± 0.59 g; Weight of years (g) Right (mongrel male mice; 1% ointment on right ear 30 minutes after challenge, 24 hours): 21.6 ± 1.02 g; Weight of years (g) left (mongrel male mice; left (control) ear of animals given 1% ointment): 15.5 ± 1.02 g"
"N[C@@H](Cc1c[nH]cn1)C(=O)NCCC(=O)O [compound XXXVI, N-L-HISTIDYL-β-ALANINE]",,,,,,,,,,,,,,2.23 ± 0.42,1.86 ± 0.16,50,0.37 ± 0.07,
